Measured values as given in PMC6639057 (Investigational new drugs, 2018).
Values joined by “and” are separate entries in the source; they are usually repeats but may differ in a detail not shown here. Equal values may be shown once.

How the values were obtained:
[1] = system: taxane- and platinum-resistant ovarian cancer; assay: Tumor response, dose-expansion ovarian cancer cohort; type: in vivo, human
[2] = system: castration-resistant and taxane- or cisplatin/etoposide-resistant prostate cancer; assay: Tumor response, dose-expansion CRPC cohort; type: in vivo, human
[3] = Central read, RECIST 1.1, expansion 40 mg + G-CSF, OC (n = 29)
[4] = GCIG criteria (RECIST 1.1 and CA 125), expansion 40 mg + G-CSF, OC (n = 29)
[5] = Local read, RECIST 1.0, expansion 40 mg + G-CSF, OC (n = 29)
[6] = Central read, RECIST 1.1, expansion 40 mg + G-CSF, CRPC (n = 12)
[7] = Local read, RECIST 1.0, expansion 40 mg + G-CSF, CRPC (n = 12)

SMILES: Cc1csc(-c2nnc(Nc3ccc(Oc4ncccc4-c4ccnc(N)n4)cc3)c3ccccc23)c1 [AMG 900]
- Progression-free survival, median (80% CI) ([1]; Central read, RECIST 1.1, Kaplan-Meier, expansion 40 mg + G-CSF, OC (n = 29)): 31.7 (23.7–47.6) weeks
- Best overall response: Complete response [1, 3]: 0 Patients (%)
- Best overall response: Not evaluable (postbaseline scan not readable) [1, 3]: 2 (7) Patients (%)
- Best overall response: Partial response [1, 3]: 3 (10) Patients (%)
- Best overall response: Progressive disease [1, 3]: 3 (10) Patients (%)
- Best overall response: Stable disease [1, 3]: 21 (72) Patients (%)
- Best overall response: Complete response [1, 4]: 0 Patients (%)
- Best overall response: Not evaluable (postbaseline scan not readable) [1, 4]: 3 (10) Patients (%)
- Best overall response: Partial response [1, 4]: 7 (24) Patients (%)
- Best overall response: Progressive disease [1, 4]: 3 (10) Patients (%)
- Best overall response: Stable disease [1, 4]: 16 (55) Patients (%)
- Partial response ([1]; GCIG criteria (RECIST 1.1 and CA 125), expansion ovarian cancer (7 of 29)): 24.1%
- Objective response rate (ORR) ([1]; GCIG criteria (central read), expansion ovarian cancer, 95% CI 10.3%–43.5%): 24.1%
- Progressive disease ([1]; GCIG criteria, expansion ovarian cancer (3 of 29)): 10.3%
- Stable disease ([1]; GCIG criteria, expansion ovarian cancer (16 of 29)): 55.2%
- Median (80% CI) PFS ([1]; Kaplan-Meier, ovarian cancer patients from dose-escalation (n = 4) and dose-expansion (n = 29)): 34.1 (31.1–not estimable) weeks
- Best overall response: Complete response [1, 5]: 0 Patients (%)
- Best overall response: Not evaluable (postbaseline scan not readable) [1, 5]: 2 (7) Patients (%)
- Best overall response: Partial response [1, 5]: 3 (10) Patients (%)
- Best overall response: Progressive disease [1, 5]: 4 (14) Patients (%)
- Best overall response: Stable disease [1, 5]: 20 (69) Patients (%)
- Progressive disease ([1]; RECIST 1.1, expansion ovarian cancer (3 of 29)): 10.3%
- Stable disease as best response ([1]; RECIST 1.1, expansion ovarian cancer (21 of 29)): 72.4%
- Median duration of response ([1]; RECIST 1.1, expansion ovarian cancer, 95% CI: 16.1–34.1): 24.1 weeks
- Objective response rate (ORR) ([1]; RECIST 1.1 central read, expansion ovarian cancer, 95% CI 2.0%–28.0%): 10.3%
- Partial response ([1]; RECIST 1.1 central, expansion ovarian cancer (3 of 29)): 10.3%
- Duration of partial response, individual patients ([1]; by GCIG criteria, same three ovarian cancer patients): 16.1 weeks and 65.6 weeks and 74.9 weeks
- Duration of partial response, individual patients ([1]; by RECIST 1.1, three ovarian cancer patients): 34.1 weeks and 24.1 weeks and 16.1 weeks
- Progression-free survival, median (80% CI) ([2]; Central read, RECIST 1.1, Kaplan-Meier, expansion 40 mg + G-CSF, CRPC (n = 12)): 32.4 (15.7–39.6) weeks
- Best overall response: Complete response [2, 6]: 0 Patients (%)
- Best overall response: Not evaluable (postbaseline scan not readable) [2, 6]: 2 (17) Patients (%)
- Best overall response: Partial response [2, 6]: 0 Patients (%)
- Best overall response: Progressive disease [2, 6]: 1 (8) Patients (%)
- Best overall response: Stable disease [2, 6]: 9 (75) Patients (%)
- Best overall response: Complete response [2, 7]: 0 Patients (%)
- Best overall response: Not evaluable (postbaseline scan not readable) [2, 7]: 1 (8) Patients (%)
- Best overall response: Partial response [2, 7]: 0 Patients (%)
- Best overall response: Progressive disease [2, 7]: 3 (25) Patients (%)
- Best overall response: Stable disease [2, 7]: 8 (67) Patients (%)
- Objective responses ([2]; RECIST 1.1, CRPC): No objective responses
